Assay: Stability of compound A microspheres: degradation products by HPLC after manufacture, γ-irradiation and storage
Type: physicochemical
Conditions: for Increase of degradation product (%) after storage at 5°C / Increase of degradation product (%) after storage at 25°C: further increase (+) on storage; for degradation: during manufacture, sterilization and 1 month storage (5°C); for Increase of degradation product (%) after man. + γ-irrad. / Increase of degradation product (%) after manufacture: microspheres, pilot batches
Experimental: Microparticles were produced by a modified triple-emulsion technique. Compound A pamoate salt was dispersed in a small amount of water (14 mg pamoate salt in 0.1 ml) and the dispersion was intensively homogenized using an Ultra-Turrax T25 (Janke & Kunkel IKA-Werk) into a solution (10-25%) of DL-PLG-GLU in methylene chloride (emulsion process). Alternatively, compound A pamoate salt was directly dispersed into the solution of polymer in methylene chloride (suspension process). The resulting primary water/oil (W/O) emulsion or suspension (S/O) was then intensively mixed with the external phase (in a ratio of 1:40), a gelatin containing aqueous solution. After stirring for one hour in order to evaporate the methylene chloride, the generated microspheres were collected by filtration, washed with water and dried under high vacuum at room temperature for 1 - 3 days. Storage was effected at 5°C. Sterilization was effected by γ-irridation (25 kGy required) by using nitrogen as a protecting gas.
Compound A content and purity of the microparticles was determined by HPLC (RP-18 columns, acetonitril - tetramethyl ammonium hydroxide/water gradient) after extraction of the peptide from the microspheres using tetrahydrofuran acetate buffer, pH 4.2 (1:1).
The generation of degradation products of compound A during the manufacture process, γ-irradiation and subsequent strorage at various temperatures is represented in Table 2. Potential stability problems arose with the acetate and the phosphate salts of compound A: during manufacture, sterilization and 1 month storage (5°C) 5 - 10% degradation occurred. These problems could be circumvented by the use of the pamoate. After manufacture, sterilization and three months of storage even at 25°C there was an increase of degradation products of less than 1.5%, more particularly of less than 0.5% after manufacture, less than 1.0% from the beginning of manufacture to just after irradiation and , inclusive of storage for 3 months at 25°C less than 1.5%.

| Structure (SMILES) | Increase of degradation product (%) after storage at 5°C (1 month) | Increase of degradation product (%) after storage at 25°C (1 month) | degradation | Increase of degradation product (%) after man. + γ-irrad. | Increase of degradation product (%) after manufacture | Increase of degradation product (%) after storage at 5°C (3 months) | Increase of degradation product (%) after storage at 25°C (3 months) | increase of degradation products (after manufacture) | increase of degradation products (after manufacture, sterilization and three months of storage at 25°C) | increase of degradation products (from the beginning of manufacture to just after irradiation) |
| --- | --- | --- | --- | --- | --- | --- | --- | --- | --- | --- |
| CC(=O)N[C@H](Cc1ccc2ccccc2c1)C(=O)N[C@H](Cc1ccc(Cl)cc1)C(=O)N[C@H](Cc1c[nH]c2ccccc12)C(=O)N[C@@H](CO)C(=O)N[C@@H](Cc1ccc(O)cc1)C(=O)N[C@H](CCCCNCC(O)CO)C(=O)N[C@@H](CC(C)C)C(=O)N[C@@H](CCCCNCC(O)CO)C(=O)N1CCC[C@H]1C(=O)N[C@H](C)C(N)=O (single isomer, unassigned) [Compound A phosphate] | + 0.7% | + 1.6% | 5 - 10% | 7.0 - 9.0% | 1.2 - 3.5% | – | – | – | – | – |
| CC(=O)N[C@H](Cc1ccc2ccccc2c1)C(=O)N[C@H](Cc1ccc(Cl)cc1)C(=O)N[C@H](Cc1c[nH]c2ccccc12)C(=O)N[C@@H](CO)C(=O)N[C@@H](Cc1ccc(O)cc1)C(=O)N[C@H](CCCCNCC(O)CO)C(=O)N[C@@H](CC(C)C)C(=O)N[C@@H](CCCCNCC(O)CO)C(=O)N1CCC[C@H]1C(=O)N[C@H](C)C(N)=O (single isomer, unassigned) [Compound A acetate] | + 0.6% | + 1.3% | 5 - 10% | 4.2 - 8.3% | 0.4 - 4.2% | – | – | – | – | – |
| CC(=O)N[C@H](Cc1ccc2ccccc2c1)C(=O)N[C@H](Cc1ccc(Cl)cc1)C(=O)N[C@H](Cc1c[nH]c2ccccc12)C(=O)N[C@@H](CO)C(=O)N[C@@H](Cc1ccc(O)cc1)C(=O)N[C@H](CCCCNCC(O)CO)C(=O)N[C@@H](CC(C)C)C(=O)N[C@@H](CCCCNCC(O)CO)C(=O)N1CCC[C@H]1C(=O)N[C@H](C)C(N)=O (single isomer, unassigned) [Compound A pamoate] | – | – | – | 0.4 - 0.8% | 0.1 - 0.4% | + 0.4% | + 0.6% | less than 0.5% | less than 1.5% | less than 1.0% |
